The text below walks through data of US9126999B2, “Tetrahydropyrazolopyrimidine compounds” (EISAI R&D MANAGEMENT CO., LTD., priority 2012, dated 2015).

Molecules are shown by their SMILES. Several values for one entry are separate records, joined by “and”; a condition that tells them apart may be missing. Identical values can stand only once. Like-named read-outs stand apart in the source and are kept apart here.

The test system of test [1] is T1, Human TLR7/8.
T1 construct: IC50; other: Hu PBMC; ligand RNA-Ig; analyte IL-6; analyte TNFα; ligand R848; IC50 against the RNA-Ig TLR7/8 stimulus; cytokine responses to RNA-Ig complexes in vitro; potency against the RNA-Ig TLR7/8 stimulus versus HCQ
As to the kind of experiment: Human PBMC cell-based assay, RNA-Ig (SL4-Ig) stimulus, cytokine ELISA. The method, then: Briefly, 25 ml blood was diluted with 15 ml PBS (without Ca^2+, Mg^2+) in a 50 ml conical tube, and 12 ml Histopaque was underlaid using a spinal needle. Tubes were centrifuged for 45 minutes at 1200 rpm (350×g), and PBMC were collected from the buffy coat. Cells were then washed twice in PBS, and red blood cells were lysed by suspension in 5 ml ammonium chloride solution (1× Red Blood Cell Lysis Buffer, eBioscience) for 5 minutes at room temperature.
Antagonist compounds solubilized and serial diluted in 100% DMSO were added in triplicate to cells to yield a final concentration of 0.1% DMSO (v/v). Hydroxychloroquine (Acros Organics) solubilized and serial diluted in PBS was added in triplicate to cells. […] The resulting “RNA-Ig” stimulus was incubated at room temperature for 15-30 minutes before adding to cells. PBMC were incubated with the various TLR agonists for 20 hours at 37° C., 5% CO2. Cell culture supernatants were collected, and levels of various human cytokines were assessed as indicated by standard ELISA procedure according to the manufacturer's recommended protocol (BD Biosciences, Inc., San Diego, Calif.).

Test [2] addresses T2, Mouse TLR7 (Mus musculus, UniProt P58681).
T2 construct: endogenous in cells; host or cells: female BALB/c mice, in vivo
T2 sequence (P58681 27-1050): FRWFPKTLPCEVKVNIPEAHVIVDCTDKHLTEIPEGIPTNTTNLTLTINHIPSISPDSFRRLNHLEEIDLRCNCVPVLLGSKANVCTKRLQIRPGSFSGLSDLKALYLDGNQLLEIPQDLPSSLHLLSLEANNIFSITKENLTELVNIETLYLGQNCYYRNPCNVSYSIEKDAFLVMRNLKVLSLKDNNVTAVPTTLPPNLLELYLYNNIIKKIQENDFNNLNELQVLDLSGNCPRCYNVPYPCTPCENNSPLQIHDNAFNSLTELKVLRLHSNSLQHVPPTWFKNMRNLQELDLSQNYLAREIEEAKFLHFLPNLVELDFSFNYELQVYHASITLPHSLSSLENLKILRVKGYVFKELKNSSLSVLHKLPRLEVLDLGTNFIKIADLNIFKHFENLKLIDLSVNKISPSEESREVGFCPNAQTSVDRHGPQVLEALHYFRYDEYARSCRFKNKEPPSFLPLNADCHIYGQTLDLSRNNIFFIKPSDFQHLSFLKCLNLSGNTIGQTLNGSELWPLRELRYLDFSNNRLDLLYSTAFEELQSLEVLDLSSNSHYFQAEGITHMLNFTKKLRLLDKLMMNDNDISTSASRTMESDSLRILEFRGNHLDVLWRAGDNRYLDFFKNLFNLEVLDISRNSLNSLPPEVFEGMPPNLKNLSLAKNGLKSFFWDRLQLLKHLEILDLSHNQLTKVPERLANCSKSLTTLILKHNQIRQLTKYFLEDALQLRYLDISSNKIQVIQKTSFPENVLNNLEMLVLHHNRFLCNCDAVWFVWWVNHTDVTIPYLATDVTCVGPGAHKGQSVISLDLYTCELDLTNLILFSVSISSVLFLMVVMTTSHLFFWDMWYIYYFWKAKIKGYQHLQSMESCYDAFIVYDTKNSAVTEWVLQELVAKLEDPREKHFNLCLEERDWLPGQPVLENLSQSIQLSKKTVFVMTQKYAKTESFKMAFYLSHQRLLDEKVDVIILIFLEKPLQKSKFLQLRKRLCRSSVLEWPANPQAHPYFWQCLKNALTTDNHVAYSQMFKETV
Kind of test: Mouse spleen cell-based assay, R848 stimulus, IL-6 ELISA. As for the experimental part:
Spleens were harvested from female BALB/c mice (Jackson Labs, Bar Harbor, Me.) euthanized by CO2. A single cell suspension was obtained by passing spleens through a 40 μm nylon cell strainer. Cells were washed twice with 50 ml PBS (Mediatech, Inc., Manassas, Va.) and red blood cells were lysed in 5 ml RBC Lysis buffer (eBioscience, Inc., San Diego, Calif.) for 5 minutes at room temperature. Cells were washed twice more in PBS and finally resuspended in supplemented RPMI-1640 at 2.5×10^6 cells/ml. Cells were plated at 100 μl/well (2.5×10^5 cells/well) in 96-well tissue culture treated plates (Falcon). Serial dilutions of compounds solubilized in 100% DMSO were added in triplicate to cells to yield a final concentration of 0.1% DMSO. Cells were incubated with compound for 30 minutes at 37° C., 5% CO2 before adding 100 μl/well of 740 nM R848 (Resiquimod; GLSynthesis, Worcester, Mass.) in complete media for a final concentration of 370 nM R848. Cells were incubated for 20 hours at 37° C., 5% CO2. Culture supernatants were collected, and levels of IL-6 were assessed by standard ELISA procedure according to the manufacturer's recommended protocol (BD Biosciences, Inc., San Diego, Calif.).

[3] abbreviates: Human PBMC IL-6 Inhibition (SL4-Ig Ligand), read-out: Human PBMC IC50.
Where [4] appears, read: Mouse Splenocyte IL-6 Inhibition (R848 Ligand), read-out: Mouse Splenocyte IC50.

Consider `Cc1nn(C)cc1[C@H]1C[C@@H](C(F)(F)F)n2nc(-c3ccc(NC(N)=O)cc3)cc2N1` [ER-894596], for which the IC50 amounted to 1750 nM in test [1] (setting [3]) and 3020 nM in test [2] (setting [4]).
On to `COc1ccc([C@@H]2C[C@H](C(F)(F)F)n3nc(-c4ccc(C(=O)N5CCNCC5)cc4)cc3N2)cc1OC` [ER-892887, (4-((5S,7R)-5-(3,4-dimethoxyphenyl)-7-(trifluoromethyl)-4,5,6,7-tetrahydropyrazolo[1,5-a]pyrimidin-2-yl)phenyl)(piperazin-1-yl)methanone], for which the “cytokine responses to RNA-Ig complexes in vitro” value in test [1] is reported as “blocks”. Also, the IC50 in test [1] (Hu PBMC, ligand RNA-Ig, analyte TNFα, read-out: IC50) was 13 nM; in test [1] (setting [3]), 40 nM and 51 nM; in test [1] (read-out: IC50 against the RNA-Ig TLR7/8 stimulus) it was 15 nM; in test [2] (setting [4]) it was 70 nM and 330 nM; in test [2] (Mu Spleen, ligand R848, analyte IL-6, read-out: IC50), 70 nM. Moreover, the “potency against the RNA-Ig TLR7/8 stimulus versus HCQ” value in test [1] (ratio of IC50 values, more potent than HCQ) is “approximately 100 fold”.
For the compound `Cc1nn(C)cc1[C@@H]1C[C@H](C(F)(F)F)n2nc(-c3ccc(NC(N)=O)cc3)cc2N1` [ER-894595], the IC50 in test [1] (setting [3]) was 2160 nM; in test [2] (setting [4]), 3110 nM.
Consider `COc1ccc([C@@H]2C[C@H](C(F)(F)F)n3nc(-c4ccncc4)cc3N2)cc1OC` [ER-885454], for which the results for the IC50 in test [1] (setting [3]) and in test [2] (setting [4]) were 676 nM and 680 nM, respectively.
